Reference: patent publication US20240115663A1, “COMPOSITIONS COMPRISING AT LEAST AN INSULIN AND AN AMYLIN RECEPTOR AGONIST FOR TREATING DIABETES, IN A PATIENT/PERSON HAVING A BMI OF MORE THAN 28 KG/M² AND/OR AN HBA1C OF MORE THAN 7.6%” (ADOCIA, priority 2022, published 2024)

Experiment: Phase 2 clinical trial of M1Pram vs Humalog in subjects with type 1 diabetes: body weight change after 16 weeks
Format: in vivo, human
Procedure: A phase 2 clinical trial was conducted to confirm the efficacy and safety of M1Pram in subjects with type 1 diabetes (NCT04816890).
The primary objective of the trial was to compare the efficacy of prandial use of M1Pram to Humalog® (insulin lispro) on body weight change after 16 weeks of optimised titration, in combination with a basal insulin.
In addition, exploratory objectives included the comparison of the efficacy of prandial use of M1Pram with Humalog® in subgroups of subjects with a body mass index (BMI) and HbA1c above and below the median at screening.
A post-hoc analysis also included the comparison of the efficacy of prandial use of M1Pram with Humalog® in subgroups of subjects with a body mass index (BMI)>=30 kg/m^2.
The primary endpoint was the body weight change from baseline to week 16 of treatment.
In addition, exploratory endpoints included analysis of the subgroups of the primary endpoint according to BMI and HbA1c below and above the median.
A post-hoc analysis was also performed to analyze the subgroups of the primary endpoint according to BMI>=30 kg/m^2.
This was a multicentric, open-label, randomized, two-arm parallel, active-comparator controlled phase 2 clinical trial evaluating the efficacy and safety of M1Pram in subjects with type 1 diabetes.
Key inclusion criteria included subjects • with T1D • aged between 18 and 64 years • with a Body Mass Index (BMI) between 25.0 and 35.0 kg/m^2, both inclusive, • with HbA1c between 7.0% and 9.5%, both inclusive • with a Diabetes duration of at least 12 months • Using a multiple dosing insulin therapy (MDI) with a basal insulin and a rapid-acting insulin • having at least two meals per day.
80 patients were randomized 1:1 to M1Pram or Humalog®.
The trial consisted in 4 periods: • an optional a run-in period of 2 to 4 weeks for patients not already using the Continuous Glucose Monitoring (CGM) system used in the trial or either insulin degludec or insulin glargine as basal insulins • a 3-week baseline data recording period • after randomization, a treatment period of about 16 weeks (W1 to 16) • and a safety follow-up period of 1 to 2 weeks after the last product administration.
37 subjects completed the trial in the Humalog® arm and 34 in the M1 Pram arm. The subgroups were selected depending on the patients' metrics at screening.

What does the source list for insulin lispro [Humalog ®]?
Mean BW change in kg (SD) (All completers, baseline to week 16 of treatment, T1D subjects, prandial use with basal insulin): −0.45 (3.12) kg; Mean BW change in kg (SD) (Subgroup BMI <= 28 kg/m^2 at screening, baseline to week 16): −0.69 (3.19) kg; Mean BW change in kg (SD) (Subgroup BMI > 28 kg/m^2 at screening, baseline to week 16): −0.17 (3.09) kg; Mean BW change in kg (SD) (Subgroup BMI >= 30 kg/m^2 (post-hoc), baseline to week 16): −0.57 (3.60) kg; Mean BW change in kg (SD) (Subgroup HbA1c <= 7.6% at screening, baseline to week 16): −0.87 (2.20) kg; Mean BW change in kg (SD) (Subgroup HbA1c > 7.6% at screening, baseline to week 16): 0.04 (3.95) kg
